Source: patent US10995099B2, “Compounds and their uses as ACC inhibitors” (NANJING RUIJIE PHARMATECH CO., LTD., priority 2017, dated 2021)
Where two headings read alike, the source gives them in different places.

Experiments:
[1] = biological target: ACC2 (Homo sapiens (Human), UniProt O00763); experiment: In vitro ACC inhibition assay (ADP-Glo), ACC2; format: biochemical
Method: (§1) Compounds of the present invention were evaluated in an in vitro ACC inhibition assay as described by Harwood, et al, 2003, the entirety of which is incorporated herein by reference.
(§2) In Vitro Acetyl-CoA Carboxylase (ACC) Inhibition Assay
(§3) An exemplary procedure for the in vitro ACC inhibition assay, which can be used to determine the inhibitory action of compounds of the invention toward either ACC1 or ACC2, follows. The ADP-Glo™ Kinase Assay kit from Promega was used. The ADP-Glo™ Kinase Assay is a luminescent ADP detection assay to measure enzymatic activity by quantifying the amount of ADP produced during an enzyme reaction. The assay is performed in two steps; first, after the enzyme reaction, an equal volume of ADP-Glo™ Reagent is added to terminate the reaction and deplete the remaining ATP. Second, the Kinase Detection Reagent is added to simultaneously convert ADP to ATP and allow the newly synthesized ATP to be measured using a luciferase/luciferin reaction. Luminescence can be correlated to ADP concentrations by using an ATP-to-ADP conversion curve. The detailed procedure is as follows. 50 μL of the compound being tested (600 uM in DMSO) was added to a 384-well dilution plate. The compound was diluted 1:3 in succession in DMSO for each row for 11 wells. 0.5 μL ACC2 working solution was added to 384-well white Optiplate assay plate. 0.5 μL diluted compound solution in each column from step 2 to assay plate, each row containing 2 replicates. […] The plates were incubated at room temperature for 15 minutes. 5 μL substrate working solution was added to each well to initiate reaction. Final ACC2 reaction concentrations consist of: 5 nM ACC2, 20 μM ATP, 20 μM acetyl-CoA, 12 mM NaHCO3, 0.01% Brij35, 2 mM DTT, 5% DMSO, test compound concentrations: 30 μM, 10 μM, 3.33 μM, 1.11 μM, 0.37 μM, 0.123 μM, 0.0411 μM, 0.0137 μM, 0.00457 μM, 0.00152 μM, and 0.00051 μM. Plates were incubated at room temperature for 60 minutes. 10 μL ADP glo reagent was added. Plates were incubated at room temperature for 40 minutes. 20 μL kinase detection reagent was added. Plates were incubated at room temperature for 40 minutes, then read on a Perkin Elmer EnVision 2104 plate reader for luminescence as Relative Light Units (RLU).
(§4) Data for each concentration, as well as the positive and negative controls were averaged, and the standard deviation calculated. Percent inhibition was calculated by the formula: 100×(average negative control-compound)/(average negative control-average positive control). The IC50 for each compound was calculated by fitting the data with a non-linear regress ion equation: Y=Bottom+(Top−Bottom)/(1+10((Log IC50−X* HillSlope)), where X is the log of compound concentration and Y is percent inhibition.

[2] = test system: HepG2; experiment: EC50 in HepG2; format: cell-based
[3] = biological target: ACC1 (Homo sapiens (Human), UniProt Q13085); experiment: In vitro ACC inhibition assay (ADP-Glo), ACC1; format: biochemical
Method: as §1, §2, §3, §4

[4] = 5 nM ACC2, 20 μM ATP, 20 μM acetyl-CoA, read-out: IC50 (μM) ACC2
[5] = ND630 versus RJ compounds, isoform not given, read-out: IC50 (μM) ND630/RJ-cmps(%)
[6] = ND630 versus RJ compounds, read-out: EC50 (μM) ND630/RJ-cmps(%)
[7] = HepG2, read-out: EC50 (μM) HepG2
[8] = Homo sapiens, HepG2, read-out: EC50 (μM) HepG2

Sequence of ACC2 (O00763 whole entry, species assumed): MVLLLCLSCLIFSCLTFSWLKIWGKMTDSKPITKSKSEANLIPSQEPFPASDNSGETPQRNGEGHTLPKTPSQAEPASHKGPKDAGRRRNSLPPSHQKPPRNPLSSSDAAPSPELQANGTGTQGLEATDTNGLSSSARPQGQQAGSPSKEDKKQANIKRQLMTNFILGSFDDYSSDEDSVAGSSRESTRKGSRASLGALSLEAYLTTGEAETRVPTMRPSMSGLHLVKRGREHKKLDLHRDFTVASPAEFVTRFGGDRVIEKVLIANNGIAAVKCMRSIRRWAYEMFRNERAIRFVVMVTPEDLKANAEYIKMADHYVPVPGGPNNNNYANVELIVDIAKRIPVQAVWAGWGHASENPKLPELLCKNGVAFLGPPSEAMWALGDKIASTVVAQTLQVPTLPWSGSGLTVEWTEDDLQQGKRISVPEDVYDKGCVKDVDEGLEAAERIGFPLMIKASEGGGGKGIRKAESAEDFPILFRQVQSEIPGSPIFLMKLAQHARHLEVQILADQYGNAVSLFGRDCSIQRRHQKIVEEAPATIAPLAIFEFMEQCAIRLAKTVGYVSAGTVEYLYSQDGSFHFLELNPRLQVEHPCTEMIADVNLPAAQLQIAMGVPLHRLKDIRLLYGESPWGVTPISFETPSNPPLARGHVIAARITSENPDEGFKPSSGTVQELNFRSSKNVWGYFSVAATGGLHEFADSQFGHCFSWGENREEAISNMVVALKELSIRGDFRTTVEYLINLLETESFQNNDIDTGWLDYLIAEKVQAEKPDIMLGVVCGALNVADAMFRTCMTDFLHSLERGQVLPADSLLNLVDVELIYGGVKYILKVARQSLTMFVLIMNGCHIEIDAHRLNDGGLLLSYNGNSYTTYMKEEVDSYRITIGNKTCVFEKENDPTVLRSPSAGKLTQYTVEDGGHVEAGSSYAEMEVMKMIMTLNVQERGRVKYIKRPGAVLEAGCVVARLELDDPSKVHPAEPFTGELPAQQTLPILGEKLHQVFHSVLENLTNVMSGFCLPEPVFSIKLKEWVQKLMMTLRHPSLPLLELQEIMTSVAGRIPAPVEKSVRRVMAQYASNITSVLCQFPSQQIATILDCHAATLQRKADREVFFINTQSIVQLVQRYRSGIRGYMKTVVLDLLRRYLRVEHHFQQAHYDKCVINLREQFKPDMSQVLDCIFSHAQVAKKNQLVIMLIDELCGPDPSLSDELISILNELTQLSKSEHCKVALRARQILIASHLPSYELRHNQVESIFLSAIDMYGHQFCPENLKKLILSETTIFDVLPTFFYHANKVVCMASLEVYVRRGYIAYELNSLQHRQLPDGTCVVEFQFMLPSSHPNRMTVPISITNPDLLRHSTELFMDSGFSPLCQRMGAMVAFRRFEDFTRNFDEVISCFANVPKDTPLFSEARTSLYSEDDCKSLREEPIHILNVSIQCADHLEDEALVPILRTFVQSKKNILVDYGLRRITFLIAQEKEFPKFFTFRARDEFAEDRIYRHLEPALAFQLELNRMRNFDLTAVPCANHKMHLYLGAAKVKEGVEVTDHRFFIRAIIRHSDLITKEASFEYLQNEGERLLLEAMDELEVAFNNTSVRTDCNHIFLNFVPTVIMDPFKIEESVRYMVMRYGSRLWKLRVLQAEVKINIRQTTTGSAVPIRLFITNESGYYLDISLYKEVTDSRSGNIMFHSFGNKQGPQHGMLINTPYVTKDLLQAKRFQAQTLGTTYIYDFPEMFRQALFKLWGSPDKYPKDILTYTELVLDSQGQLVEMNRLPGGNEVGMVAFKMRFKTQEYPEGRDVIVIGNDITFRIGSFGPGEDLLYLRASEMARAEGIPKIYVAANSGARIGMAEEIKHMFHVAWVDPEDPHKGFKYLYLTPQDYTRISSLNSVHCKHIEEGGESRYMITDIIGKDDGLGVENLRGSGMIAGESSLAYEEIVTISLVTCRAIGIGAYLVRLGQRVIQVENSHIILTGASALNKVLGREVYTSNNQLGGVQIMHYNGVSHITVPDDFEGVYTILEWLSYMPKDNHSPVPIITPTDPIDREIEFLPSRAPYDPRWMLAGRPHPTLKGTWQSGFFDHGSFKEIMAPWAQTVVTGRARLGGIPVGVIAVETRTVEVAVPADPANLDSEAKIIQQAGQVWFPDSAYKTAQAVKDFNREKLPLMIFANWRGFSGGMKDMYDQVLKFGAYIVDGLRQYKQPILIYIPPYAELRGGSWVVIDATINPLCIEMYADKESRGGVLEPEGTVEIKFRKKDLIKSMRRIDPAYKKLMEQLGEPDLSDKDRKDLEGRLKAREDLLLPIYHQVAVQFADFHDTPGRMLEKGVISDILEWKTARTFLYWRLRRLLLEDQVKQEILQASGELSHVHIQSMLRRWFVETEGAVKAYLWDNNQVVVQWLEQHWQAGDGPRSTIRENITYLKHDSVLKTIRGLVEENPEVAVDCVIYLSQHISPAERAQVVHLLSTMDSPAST

COc1ccccc1C(O)Cn1c(=O)n(C(C)(C)C(=O)O)c(=O)c2cc(C)c(-c3ncco3)cc21 (stereo not shown) [Example 13]
IC50 [1, 4]: > 1 µM
IC50 [1, 5]: 0.005 to 0.01 µM
EC50 [2, 6]: 0.01 to 0.1 µM

COc1ccccc1[C@H](Cn1c(=O)n(C(C)(C)C(=O)OC(C)(C)C)c(=O)c2c(C)c(-c3ncco3)sc21)OC1CCOCC1 [Example 66]
IC50 [3]: 0.001 to 0.01 µM
IC50 [1, 4]: 0.01 to 0.1 µM
IC50 [1, 5]: > 0.01 µM

COc1ccccc1[C@H](Cn1c(=O)n(C2(C(=O)O)CCC2)c(=O)c2c(C)c(CN)sc21)OC1CCOCC1 [Example 34]
IC50 [1, 4]: > 1 µM
IC50 [1, 5]: 0.003 to 0.005 µM
EC50 [2, 6]: 0.1 to 1 µM

COc1ccccc1C(Cn1c(=O)n(C2(C(=O)O)CCCC2)c(=O)c2c(C)c(-c3ncco3)sc21)OC1CCOCC1 (stereo not shown) [Example 25]
IC50 [1, 4]: < 0.01 µM
IC50 [1, 5]: 0.003 to 0.005 µM
EC50 [2, 6]: 0.1 to 1 µM

COc1ccccc1[C@H](Cn1c(=O)n(C2(C(=O)O)CC2)c(=O)c2c(C)c(-n3nccn3)sc21)OC1CCOCC1 [Example 49]
IC50 [1, 4]: < 0.01 µM
IC50 [1, 5]: 0.003 to 0.005 µM
EC50 [2, 7]: 0.1 to 1 µM
EC50 [2, 6]: 0.1 to 1 µM

COC(=O)C1(n2c(=O)c3c(C)c(Br)sc3n(C[C@H](OC3CCOCC3)c3ccccc3OC)c2=O)CCC1 [Example 67]
IC50 [3]: > 0.05 µM
IC50 [1, 4]: 0.1 to 1 µM
IC50 [1, 5]: > 0.01 µM

CNC(=O)C1(n2c(=O)c3c(C)c(Br)sc3n(CC(OC3CCOCC3)c3ccccc3OC)c2=O)CCCC1 (stereo not shown) [Example 50]
IC50 [1, 4]: 0.01 to 0.1 µM
IC50 [1, 5]: 0.003 to 0.005 µM
EC50 [2, 6]: 0.1 to 1 µM

COc1ccccc1[C@H](Cn1c(=O)n(C2(C(=O)O)CC2)c(=O)c2c(C)c(-n3cccn3)sc21)OC1CCOCC1 [Example 45]
IC50 [1, 4]: < 0.01 µM
IC50 [1, 5]: 0.005 to 0.01 µM
EC50 [2, 7]: 0.1 to 1 µM
EC50 [2, 6]: > 1 µM

COc1ccccc1C(Cn1c(=O)n(C2(C(=O)O)CCC2)c(=O)c2c(C)c(-c3ncco3)sc21)OC1CCOCC1 (stereo not shown) [Example 26]
IC50 [1, 4]: < 0.01 µM
IC50 [1, 5]: 0.003 to 0.005 µM
EC50 [2, 6]: 0.1 to 1 µM

COc1ccccc1[C@@H](Cn1c(=O)n(C2(C(=O)O)CC2)c(=O)c2c(C)c(Br)sc21)OC1CCOCC1 [Example 32]
IC50 [1, 4]: 0.1 to 1 µM
IC50 [1, 5]: 0.003 to 0.005 µM
EC50 [2, 6]: 0.1 to 1 µM

COc1ccccc1[C@H](Cn1c(=O)n(C(C)(C)C(=O)O)c(=O)c2c(C)c(-c3ncco3)sc21)OC1CCOCC1 [Example 8]
IC50 [1, 4]: 0.01 to 0.1 µM
IC50 [1, 5]: 0.005 to 0.01 µM
EC50 [2, 7]: > 1 µM
EC50 [2, 6]: > 1 µM

COc1ccccc1[C@H](Cn1c(=O)n(C(C)(C)C(=O)OC(C)(C)C)c(=O)c2c(C)c(Br)sc21)OC1CCOCC1 [Example 68]
IC50 [3]: > 0.05 µM
IC50 [1, 4]: 0.1 to 1 µM
IC50 [1, 5]: > 0.01 µM

COc1ccccc1[C@@H](Cn1c(=O)n(C2(C(=O)O)CC2)c(=O)c2c(C)c(-c3ncco3)sc21)OC1CCOCC1 [Example 28]
IC50 [1, 4]: 0.1 to 1 µM
IC50 [1, 5]: 0.003 to 0.005 µM
EC50 [2, 6]: 0.1 to 1 µM

COCc1sc2c(c1C)c(=O)n(C1(C(=O)O)CCCC1)c(=O)n2C[C@H](CC1CCOCC1)c1ccccc1OC [Example 27]
IC50 [1, 4]: > 1 µM
IC50 [1, 5]: 0.003 to 0.005 µM
EC50 [2, 6]: 0.1 to 1 µM

CNC(=O)C1(n2c(=O)c3cc(Br)sc3n(C[C@H](OC3CCOCC3)c3ccccc3OC)c2=O)CC1 [Example 57]
IC50 [1, 4]: 0.1 to 1 µM
IC50 [1, 5]: 0.005 to 0.01 µM
EC50 [2, 7]: 0.1 to 1 µM

COCCNC(=O)CC1(n2c(=O)c3c(C)c(-c4ncco4)sc3n(CC(OC3CCOCC3)c3ccccc3OC)c2=O)CC1 (stereo not shown) [Example 65]
IC50 [1, 4]: 0.01 to 0.1 µM
EC50 [2, 7]: > 1 µM

COc1ccccc1C(Cn1c(=O)n(C(C)(C)C(=O)O)c(=O)c2cc(C)c(Br)cc21)OC1CCOCC1 (stereo not shown) [Example 12]
IC50 [1, 4]: > 1 µM
IC50 [1, 5]: 0.005 to 0.01 µM
EC50 [2, 6]: 0.01 to 0.1 µM

COc1ccccc1C(Cn1c(=O)n(C2(CC(=O)O)CC2)c(=O)c2c(C)c(-c3ncco3)sc21)OC1CCOCC1 (stereo not shown) [Example 82]
IC50 [1, 4]: 0.01 to 0.1 µM
IC50 [1, 5]: 0.005 to 0.01 µM
EC50 [2, 7]: 0.01 to 0.1 µM
EC50 [2, 6]: > 1 µM

COc1ccccc1[C@H](Cn1c(=O)n(C(C)(C)C(=O)O)c(=O)c2c(C)c(-c3nnco3)sc21)OC1CCOCC1 [Example 9]
IC50 [1, 4]: 0.1 to 1 µM
IC50 [1, 5]: 0.005 to 0.01 µM
EC50 [2, 7]: > 1 µM
EC50 [2, 6]: > 1 µM

COc1ccccc1[C@H](Cn1c(=O)n(C2(C(=O)O)CC2)c(=O)c2c(C)c(-c3cnco3)sc21)OC1CCOCC1 [Example 80]
IC50 [1, 4]: 0.01 to 0.1 µM
IC50 [1, 5]: 0.005 to 0.01 µM
EC50 [2, 7]: > 1 µM
EC50 [2, 6]: > 1 µM

COc1ccccc1C(Cn1c(=O)n(C2(C(N)=O)CCCC2)c(=O)c2c(C)c(Br)sc21)OC1CCOCC1 (stereo not shown) [Example 48]
IC50 [1, 4]: < 0.01 µM
IC50 [1, 5]: 0.003 to 0.005 µM
EC50 [2, 7]: 0.1 to 1 µM
EC50 [2, 6]: > 1 µM

COc1ccccc1[C@H](Cn1c(=O)n(C2(C(=O)O)CC2)c(=O)c2c(C)c(-n3cncn3)sc21)OC1CCOCC1 [Example 56]
IC50 [1, 4]: 0.1 to 1 µM
IC50 [1, 5]: 0.005 to 0.01 µM

COc1ccccc1[C@H](Cn1c(=O)n(C2(C(=O)O)CC2)c(=O)c2c(C)csc21)OC1CCOCC1 [Example 17]
IC50 [1, 4]: > 1 µM
IC50 [1, 5]: 0.005 to 0.01 µM

COc1ccccc1[C@H](Cn1c(=O)n(C2(C(=O)O)CC2)c(=O)c2cc(-c3ncco3)ccc21)OC1CCOCC1 [Example 39]
IC50 [1, 4]: > 1 µM
IC50 [1, 5]: 0.005 to 0.01 µM
EC50 [2, 7]: 0.1 to 1 µM
EC50 [2, 6]: 0.01 to 0.1 µM

COc1ccccc1C(Cn1c(=O)n(C2(C(=O)O)CC2)c(=O)c2c(C)c(-c3ncco3)sc21)OC1CCOCC1 (stereo not shown) [Example 3, 1-[1-[2-(2-methoxyphenyl)-2-tetrahydropyran-4-yloxy-ethyl]-5-methyl-6-oxazol-2-yl-2,4-dioxo-thieno[2,3-d]pyrimidin-3-yl]cyclopropanecarboxylic acid]
IC50 [1, 4]: 0.01 to 0.1 µM
IC50 [1, 5]: 0.005 to 0.01 µM
EC50 [2, 8]: 0.01 to 0.1 µM
EC50 ([2]; Homo sapiens, ND630 versus RJ compounds, read-out: EC50 (μM) ND630/RJ-cmps(%)): > 1 µM

COc1ccccc1C(Cn1c(=O)n(C(C)(C)C(=O)O)c(=O)c2cc(C)c(-c3ncco3)cc21)OC1CCOCC1 (stereo not shown) [Example 11]
IC50 [1, 4]: > 1 µM
IC50 [1, 5]: 0.005 to 0.01 µM
EC50 [2, 6]: 0.01 to 0.1 µM

COc1ccccc1C(Cn1c(=O)n(C2(CC(=O)N3CCOCC3)CC2)c(=O)c2c(C)c(Br)sc21)OC1CCOCC1 (stereo not shown) [Example 23]
IC50 [1, 4]: 0.1 to 1 µM
IC50 [1, 5]: 0.003 to 0.005 µM
EC50 [2, 6]: 0.1 to 1 µM

COc1ccccc1C(Cn1c(=O)n(C(C)(C)C(=O)O)c(=O)c2c(C)c(Br)sc21)OC1CCOCC1 (stereo not shown) [Example 10]
IC50 [1, 4]: 0.01 to 0.1 µM
IC50 [1, 5]: 0.005 to 0.01 µM
EC50 [2, 7]: 0.1 to 1 µM
EC50 [2, 6]: > 1 µM

COc1ccccc1C(Cn1c(=O)n(C2(C(=O)O)CC2)c(=O)c2c(C)c(Br)sc21)OC1CCOCC1 (stereo not shown) [Example 4, 1-(6-bromo-1-(2-(2-methoxyphenyl)-2-(tetrahydro-2H-pyran-4-yloxy)ethyl)-5-methyl-2,4-dioxo-1,2-dihydrothieno[2,3-d]pyrimidin-3(4H)-yl)cyclopropanecarboxylic Acid]
IC50 [1, 4]: 0.01 to 0.1 µM
IC50 [1, 5]: 0.005 to 0.01 µM
EC50 [2, 8]: 0.01 to 0.1 µM
